# In patent publication US9701716B2, “Water buffalo derived dimeric peptide containing proline for antibiotic therapies” (Centaur, Inc., priority 2014, dated 2017):
# Where two headings read alike, the source gives them in different places. No end group written: not given here.
# How the values were obtained:
# Staphylococcus aureus [1] = type: cell-based
# Description: Additional antimicrobial agents were evaluated for antimicrobial activity, including 23 computationally-derived analogues of SEQ ID NO: 3. These analogues were grouped into two functional series, including those synthesized for improved helicity (Table 2; A-P) and those synthesized for enhanced activity (Table 2; IND, Q-T, and W-X). The antimicrobial activity of the synthetic analogues provided in Table 2 were evaluated using standard techniques such as those described in Sang, et al. 2007 Dev. Comp. Immunol., and herein incorporated by reference. […] The additional antimicrobial agent analogs optimized for helical stability in Example 2 (Table 3) were evaluated for antimicrobial activity. The antimicrobial activity of the synthetic analogues provided in Table 3 were evaluated using standard techniques such as those described in Sang, et al. 2007 Dev. Comp. Immunol., and herein incorporated by reference.
# Klebsiella pneumoniae = type: cell-based
# Description: (§1) The antimicrobial agents disclosed are derivatives of SEQ. ID. NO.: 3, having 14 amino acids and a broad spectrum of antimicrobial activity. The antimicrobial agents of the disclosure were synthesized and analyzed to evaluate antimicrobial activity. Initially, the antimicrobial agent of SEQ ID NO.: 3 was evaluated for inhibition of clinical isolates of common mastitis pathogens (Table 1).
# (§2) The additional antimicrobial agent analogs optimized for helical stability in Example 2 (Table 3) were evaluated for antimicrobial activity. The antimicrobial activity of the synthetic analogues provided in Table 3 were evaluated using standard techniques such as those described in Sang, et al. 2007 Dev. Comp. Immunol., and herein incorporated by reference.
# (§3) The antimicrobial activity of SEQ ID NO. 8 was further evaluated against clinical isolates of mastitis-causing bacteria (Table 5).
# Staphylococcus aureus [2] = type: cell-based; remark: listed apart in the source
# Description: as §1, §2, §3
# [3] = system: Streptococcus dysgalactiae; type: cell-based
# Description: as §1, §2, §3
# Corynebacterium species = assay: MIC against clinical isolates of mastitis pathogens; type: cell-based; conditions: clinical isolate 404-C18, Corynebacterium species, multidrug resistance ++
# Description: as §1, §2, §3
# Escherichia coli = type: cell-based
# Description: as §2, §3
# Staphylococcus aureus [4] = assay: Mastitis mouse model, CFU in mammary glands; type: in vivo, Balb/c mice; conditions: 32 μg per gland intra-mammarily, every 24 hrs for 3 days from 24 hours post-infection; Kruskal-Wallis with Dunn's post-test, 5% level of significance
# Description: The antimicrobial agent of SEQ ID NO: 8 was evaluated using an in vivo model of bacterial infection to assess the antimicrobial activity of the agent. The following methods and materials were used.
# Staphylococcus aureus was isolated from milk from dairy cows with clinical mastitis (Livestock Disease Diagnostic Center, University of Kentucky. Lexington, Ky.). Upon arrival, bacteria were striped on blood agar plates (TSA+5% sheep blood from Remel, Kansas City. Mo.) and cultured at 37° C. for 24 hrs. A fresh single bacterial colony picked from the agar plate was inoculated into 10 ml of Muller Hinton II broth (MHB) and cultured at 37° C. for 4-6 hrs. until reaching an absorbance of 0.8 with a 625 nm spectrophotometer filter. At this absorbance, the MHB has been documented to contain 1×10^5 colony forming units (CFU) in a 50 μl volume.
# For the experiment, 56 female Balb/c mice (BW˜[…]) at 7-10 days of lactation were used. Four groups of n=14 mice were used for each experiment as described below. For intramammary inoculation the protocol described by Chandler was followed (J. Med. Microbiol. V3; 273-282: 1970) with minor modifications. […]
# All mice were euthanized (using CO2) following the AVMA euthanasia guidelines 24 hours after the last treatment. […] Dilutions (10^−1, 10^−2, and 10^−3) of the homogenates were plated quantitatively to determine the number of CFU per gland. […]
# [5] = Staphylococcus aureus, first duplicate
# [6] = Staphylococcus aureus, second duplicate
Substance,MIC duplicates (Staphylococcus aureus [1]; [5]),MIC duplicates (Staphylococcus aureus [1]; [6]),further results
"SLVRILLRLLLRFG (Antimicrobial peptide sequence) [WB14-O3, antimicrobial agent optimized for helical stability]","128,128 μg/ml","128,128 μg/ml",
"GLPWILLRWLFFRG [WB14-A, GLPWILLRWLFFRG]",,,MIC (Klebsiella pneumoniae): 25.0 µM; MIC (Staphylococcus aureus [2]): 25.0 µM; MIC [3]: 12.5 µM
"GLVRILLRLLLRYG (Antimicrobial peptide sequence) [WB14-O5, antimicrobial agent optimized for helical stability]",64 µg/mL,128 µg/mL,
"GLARILLRLLFFRG [WB14-F1, GLARILLRLLFFRG]",,,"MIC duplicates (Staphylococcus aureus [1]): 8.0,8.0 μg/ml"
"GLVRILLRLLFRFG (Antimicrobial peptide sequence) [WB14-O1, antimicrobial agent optimized for helical stability]",64 µg/mL,128 µg/mL,
"GLVRILLRLLLRFS [WB14-O6, GLVRILLRLLLRFS]",,,"MIC duplicates (Staphylococcus aureus [1]): >256, >256 μg/ml"
"GLARILLRWLFRFG [WB14-N, GLARILLRWLFRFG]",,,"MIC duplicates (Staphylococcus aureus [1]): 4.0,4.0 μg/ml"
"GLTRILLRLLLRFG (Antimicrobial peptide sequence) [WB14-O4, antimicrobial agent optimized for helical stability]","256,256 μg/ml","256,256 μg/ml",
"GLARILLRLLFRFG (Antimicrobial peptide sequence) [WB14-N1, antimicrobial agent optimized for helical stability]","128,128 μg/ml","128,128 μg/ml",
"GLVRILLRLLLRFG (Antimicrobial peptide sequence) [WB14-O2, antimicrobial agent optimized for helical stability]",256 µg/mL,128 µg/mL,
"H-GLARILLRWLFFRG-OH [WB14-F, GLARILLRWLFFRG]",,,MIC (Corynebacterium species): 16.0 µg/mL; MIC (Klebsiella pneumoniae): 16.0 µg/mL; MIC [3]: 8.0 µg/mL; MIC (Escherichia coli): 4.0 µg/mL; antimicrobial activity compared with other peptides (in words) (Staphylococcus aureus [1]; Staphylococcus aureus MIC comparison): most efficacious antimicrobial synthetic peptide; colony forming units (CFU) per mammary gland versus control groups (Staphylococcus aureus [4]): a difference between the WB-14F versus the three control groups
